Drawing on ChEMBL document CHEMBL3396955, “Discovery of non-electrophilic capsaicinoid-type TRPA1 ligands” (Bioorg Med Chem Lett, 2015), this text covers Efficacy, EC50 and IC50 for six molecules.

The structures appear in SMILES notation.

Common to all, as to type: cell-based
The target in experiment [1] is Transient receptor potential cation channel subfamily A member 1 (Rattus norvegicus) (UniProt Q6RI86). Kind of experiment: Agonist activity at rat recombinant TRPA1 expressed in HEK293 cells assessed as Ca2+ influx by Fluo-4 dye based assay relative to 100 uM AITC.
Sequence of Transient receptor potential cation channel subfamily A member 1 (Rattus norvegicus) (Q6RI86 whole entry): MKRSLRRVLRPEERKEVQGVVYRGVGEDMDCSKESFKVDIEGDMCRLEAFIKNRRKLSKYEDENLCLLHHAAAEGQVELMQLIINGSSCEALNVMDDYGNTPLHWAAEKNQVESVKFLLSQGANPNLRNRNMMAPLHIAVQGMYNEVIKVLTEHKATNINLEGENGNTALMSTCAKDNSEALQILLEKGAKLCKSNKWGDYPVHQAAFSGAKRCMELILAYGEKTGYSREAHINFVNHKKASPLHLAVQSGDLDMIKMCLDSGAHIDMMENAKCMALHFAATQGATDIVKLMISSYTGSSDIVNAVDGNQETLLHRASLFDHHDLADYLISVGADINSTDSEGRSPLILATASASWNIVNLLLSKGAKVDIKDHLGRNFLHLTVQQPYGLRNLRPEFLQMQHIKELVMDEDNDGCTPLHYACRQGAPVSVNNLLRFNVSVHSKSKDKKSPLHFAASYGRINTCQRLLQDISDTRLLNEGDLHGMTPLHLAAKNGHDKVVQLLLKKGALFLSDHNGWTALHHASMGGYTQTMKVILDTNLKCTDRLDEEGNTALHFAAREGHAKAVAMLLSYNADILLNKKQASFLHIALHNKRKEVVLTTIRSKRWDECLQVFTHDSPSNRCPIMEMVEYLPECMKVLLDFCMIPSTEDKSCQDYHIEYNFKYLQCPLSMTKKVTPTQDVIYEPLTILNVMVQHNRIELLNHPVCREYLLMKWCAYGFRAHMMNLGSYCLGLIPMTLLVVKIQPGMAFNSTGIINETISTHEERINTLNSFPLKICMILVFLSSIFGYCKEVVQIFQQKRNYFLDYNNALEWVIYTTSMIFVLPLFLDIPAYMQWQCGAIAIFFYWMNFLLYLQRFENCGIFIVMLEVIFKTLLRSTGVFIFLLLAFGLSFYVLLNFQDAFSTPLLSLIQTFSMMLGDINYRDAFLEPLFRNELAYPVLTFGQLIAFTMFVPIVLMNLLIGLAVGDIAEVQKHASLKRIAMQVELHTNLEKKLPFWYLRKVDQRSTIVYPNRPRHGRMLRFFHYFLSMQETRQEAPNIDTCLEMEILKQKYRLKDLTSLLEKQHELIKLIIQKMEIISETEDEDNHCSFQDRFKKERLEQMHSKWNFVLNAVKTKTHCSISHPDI
Experiment [2] addresses T1, Transient receptor potential cation channel subfamily A member 1 (Rattus norvegicus, UniProt Q6RI86). Nature of the experiment: Agonist activity at rat recombinant TRPA1 expressed in HEK293 cells assessed as Ca2+ influx by Fluo-4 dye based assay.
The target of experiment [3] is T2, Transient receptor potential cation channel subfamily V member 1 (Homo sapiens, UniProt Q8NER1). Nature of the experiment: Agonist activity at human recombinant TRPV1 expressed in HEK293 cells assessed as Ca2+ influx by Fluo-4 dye based assay relative to 4 uM ionomycin.
T2 sequence (Q8NER1 whole entry): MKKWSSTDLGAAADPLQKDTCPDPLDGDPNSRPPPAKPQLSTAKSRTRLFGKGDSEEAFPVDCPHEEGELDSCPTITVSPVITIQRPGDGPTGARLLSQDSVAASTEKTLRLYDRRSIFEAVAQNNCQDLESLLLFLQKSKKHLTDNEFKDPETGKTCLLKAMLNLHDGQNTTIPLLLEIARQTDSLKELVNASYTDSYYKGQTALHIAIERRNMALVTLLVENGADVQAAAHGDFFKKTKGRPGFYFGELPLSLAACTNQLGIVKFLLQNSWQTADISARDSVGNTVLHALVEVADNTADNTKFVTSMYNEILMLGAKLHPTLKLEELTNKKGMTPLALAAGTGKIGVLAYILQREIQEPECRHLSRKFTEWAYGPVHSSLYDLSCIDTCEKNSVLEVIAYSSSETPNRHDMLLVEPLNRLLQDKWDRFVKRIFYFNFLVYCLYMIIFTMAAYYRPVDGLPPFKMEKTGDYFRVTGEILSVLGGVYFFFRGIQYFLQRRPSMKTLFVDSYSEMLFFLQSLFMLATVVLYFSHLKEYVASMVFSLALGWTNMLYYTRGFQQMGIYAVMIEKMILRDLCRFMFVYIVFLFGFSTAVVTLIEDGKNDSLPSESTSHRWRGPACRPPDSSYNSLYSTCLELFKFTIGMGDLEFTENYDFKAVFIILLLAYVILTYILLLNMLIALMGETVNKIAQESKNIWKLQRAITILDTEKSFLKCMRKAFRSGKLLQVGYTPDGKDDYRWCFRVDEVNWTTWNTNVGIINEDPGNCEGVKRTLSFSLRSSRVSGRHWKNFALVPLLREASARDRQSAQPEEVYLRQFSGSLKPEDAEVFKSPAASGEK
Experiment [4] has as its target T2, Transient receptor potential cation channel subfamily V member 1. Kind of experiment: Antagonist activity against human recombinant TRPV1 expressed in HEK293 cells assessed as inhibition of capsaicin-induced Ca2+ influx pre-treated 5 mins before capsaicin addition by Fluo-4 dye based assay.
Experiment [5] deals with T1, Transient receptor potential cation channel subfamily A member 1. Nature of the experiment: Antagonist activity against rat recombinant TRPA1 expressed in HEK293 cells assessed as inhibition of AITC-induced Ca2+ influx pre-treated 5 mins before capsaicin addition by Fluo-4 dye based assay.
For experiment [6], the target named is T2, Transient receptor potential cation channel subfamily V member 1. Nature of the experiment: Agonist activity at human recombinant TRPV1 expressed in HEK293 cells assessed as Ca2+ influx by Fluo-4 dye based assay.

T1 sequence (Q6RI86 whole entry): as the sequence (Q6RI86 whole entry) above

For the molecule `C=CCN=C=S`, the Efficacy in experiment [1] turned out to be 38.9%.
One may read the EC50 as the concentration giving half of the maximal effect. The term IC50 denotes the concentration at which inhibition is half-maximal. In the case of `CCCCCC[C@@H](O)C/C=C\CCCCCCCCn1nnc(-c2ccc(O)c(OC)c2)n1`, the Efficacy in experiment [1] was determined as 62.6%; in experiment [3] it was 21%. For the same molecule, the results for the EC50 in experiment [2] (read-out: EC50) and in experiment [6] (read-out: EC50) were 36.7 µM and 37.5 µM, respectively. Moreover, the 50% inhibitory concentration (IC50) in experiment [4] came out at 57.5 µM; in experiment [5] it was 11.2 µM.
As to `CCCCCCCCCn1nnc(-c2ccc(O)c(OC)c2)n1`, the values for the Efficacy in experiment [1] and in experiment [3] were 65.9% and 28.5%, respectively. Besides, the EC50 turned out to be 1.41 µM in experiment [2] (read-out: EC50) and 6.9 µM in experiment [6] (read-out: EC50). Further, the IC50 is 36 µM in experiment [4] and 1.71 µM in experiment [5].
Consider `COc1cc(CNC(=O)CCCC/C=C/C(C)C)ccc1O` [CAPSAICIN], for which the EC50 result in experiment [2] (hek293) was “Not Active”.
For `CCCCCC[C@H](C/C=C\CCCCCCCCn1nnc(-c2ccc(O)c(OC)c2)n1)OC(=O)Cc1ccccc1`, the Efficacy in experiment [1] is 72.6%; in experiment [3] it was under 10%. The EC50 in experiment [2] (read-out: EC50) was 0.81 µM; in experiment [6] (hek293) it was “Not Active”. For the same molecule, the IC50 in experiment [4] is over 100 µM; in experiment [5] it was 2.9 µM.
On to `CCCCCCCC/C=C\CCCCCCCCn1nnc(-c2ccc(O)c(OC)c2)n1`, for which the Efficacy in experiment [1] was found to be 83.1%; in experiment [3] it was 24.2%. Moreover, the EC50 in experiment [2] (read-out: EC50) is 0.83 µM; in experiment [6] (read-out: EC50), 5.5 µM. The values for the IC50 in experiment [4] and in experiment [5] were over 100 µM and 1 µM, respectively.
